According to ChEMBL document CHEMBL1127963, “Vasoactive eicosanoids: Synthesis of 12,20-dihydroxyeicosa-5(Z),8(Z),10(E),14(Z)-tetraenoic acid via a novel chiral bis-lactol” (1994):

Species: Canis familiaris
Experiment: Compound was tested relaxation of contracted coronary arteries of canine at 5 x 10-e M (p<0.01)
Assay type: functional, Canis lupus familiaris

`O=C(O)CCC/C=C\C/C=C\C=C\C(O)C/C=C\CCCCCO` (stereo unspecified) gave a Relation of 48%.
